# Reference: PMC7311950, “Potent Tetrahydroquinolone Eliminates Apicomplexan Parasites” (Frontiers in Cellular and Infection Microbiology, 2020)
# Read-outs that look alike come from different tables or passages of the source.
# Tests used:
# [1] = system: T. gondii RH-YFP tachyzoites; experiment: In vitro challenge assay, RH strain YFP tachyzoites in HFF; assay type: cell-based; conditions: Toxoplasma gondii; RH-YFP tachyzoites in HFF; Figure 1A; read-out: Tachy IC50
# Method: RH strain YFP Tachyzoites. Protocol was adapted from Fomovska et al. ([2012a],[b]) for HFF. HFF were cultured on a flat, clear-bottomed, black 96-well plate to 90–100% confluence. IMDM (1x, [+] glutamine, [+] 25 mM HEPES, [+] Phenol red, 10% FBS [Gibco, Denmark]) was removed and replaced with IMDM-C(1x, [+] glutamine, [+] 25 mM HEPES, [–] Phenol red, 10% FBS)[Gibco, Denmark]). RH-YFP, lysed from host cells by passing twice through a 27-gauge needle, were counted, then diluted to 32,000/mL in IMDM-C. HFF were infected with 3200 RH-YFP, then returned to 37°C, CO2 (5%) incubator for 1–2 h for infection. Various concentrations of the compounds in 20 μL IMDM-C were added to each well. There were triplicates for each condition. Controls were pyrimethamine/sulfadiazine (standard treatment), 0.1% DMSO only, HFF only, and untreated cultures of HFF infected with 2-fold dilutions of YFP expressing parasites (called “YFP gradient” to establish amount of color from known numbers of YFP expressing parasites). Cells were incubated at 37°C for 72 h. Plates were read using a fluorimeter (Synergy H4 Hybrid Reader, BioTek) to ascertain amount of relative fluorescence units (RFU) YFP, to measure parasite burden after treatment. Data were collected using Gen5 software with IC50 calculated by graphical analysis in Excel.
# An initial screening assay of 10 μM, 1 μM, 100 nM, and 10 nM of the compounds was performed. Compounds were not considered effective or pursued for further analysis if there was no inhibition of tachyzoites at 1 μM. If compounds were effective at 1 μM, another experiment was performed to assess effect at 1 μM, 500, 250, 125, 62.5, and 31.25 nM.
# [2] = system: P. falciparum strains D6, TM91-C235, W2, C2B; experiment: Malaria SYBR Green I-Based Fluorescence (MSF) assay; assay type: cell-based; conditions: Plasmodium falciparum
# Method: Malaria potency testing in vitro was performed using 4 different P. falciparum strains, D6, TM91-C235, W2, and C2B. The D6 strain is a drug sensitive strain from Sierra Leone, the TM91-C235 strain is a multi-drug resistant strain from Thailand, the W2 strain is a chloroquine resistant strain from Thailand, and the C2B strain is a multi-drug resistant strain with resistance against atovaquone. These assays were performed as described below.
# Compound activity against P. falciparum, was tested using the Malaria SYBR Green I–Based Fluorescence (MSF) Assay. The complete method for performing this microtiter assay is described in previous work published by Plouffe et al. ([2008]) and Johnson et al. ([2007]). In brief, this assay uses the binding of the fluorescent dye SYBR Green I to malaria DNA to measure parasite growth in the presence of 2-fold diluted experimental or control. The relative fluorescence of the intercalated SYBR Green I proportional to parasite growth, and inhibitory compounds will result in lower observed fluorescence compared to untreated parasites.
# [3] = system: T. gondii mitochondrial membrane potential; experiment: T. gondii mitochondrial membrane potential, safranine method; assay type: cell-based, Toxoplasma gondii; conditions: doses as high as 4 μM
# Method: The mitochondrial membrane potential was measured by the safranine method according to Vercesi et al. ([1998]). Freshly egressed T. gondii tachyzoites were filtered and washed twice with intracellular buffer (125 mM sucrose, 65 mM KCl, 10 mM HEPES-KOH buffer, pH 7.2, 1 mM MgCl2, and 2.5 mM potassium phosphate). After washing, the parasites were resuspended in the same buffer at 10^9/mL. An aliquot of 50 μL of this suspension was added to a cuvette containing Safranin O, 2.5 μM and Succinate 1 mM in final volume of 2 mL of the intracellular buffer. The fluorescence was measured with a Hitachi 7000 spectrofluorometer with settings Ex. 495/Em. 586. Once the baseline fluorescence was stable, 30 μM digitonin was added to permeabilize the parasites. Eighty five seconds after permeabilization, the THQ derivatives, dissolved in DMSO, were added. Five micromolars of FCCP (Carbonyl cyanide-4-(trifluoromethoxy) phenylhydrazone) was used as an uncoupler reference for calculations and its effect was considered 100%. We used similar conditions for measuring the mitochondrial membrane potential of mammalian cells with the following changes: the mammalian cells were resuspended at 10^8/mL. We also used 50 μL of this suspension for each experiment in a total volume of 2 mL. The substrate used for mammalian cells was 5 mM glutamate and 5 mM malate. A higher concentration of digitonin (50 μM) was used to permeabilize the mammalian cells. The compounds were added at ~400 s after permeabilization. Each experiment was repeated at least three times in duplicates. Statistical analysis, unpaired student t-test, was performed using GraphPad Prism 8.0 (GraphPad Software, Inc., San Diego, CA).
# Mitochondrial membrane potential measurements were performed with permeabilized T. gondii tachyzoites in suspension using safranin O, which loads into polarized membranes [see section Materials and Methods in the Supplemental Materials (Vercesi et al., [1998])]. T. gondii tachyzoites were permeabilized with digitonin to allow the mitochondrial substrate succinate to cross the membrane and energize the mitochondrion. The fluorescence of safranin O, which loads into energized mitochondria was used to measure the membrane potential. The energized state of the mitochondrion is observed by a decrease in fluorescence (Figures 3A,C,E). Trifluoromethoxy carbonylcyanide phenylhydrazone (FCCP) was used to depolarize the membrane, which is observed as an increase in fluorescence (Figures 3A,B). JAG21 depolarized the membrane potential even at concentrations as low as 2 nM (Figures 3C,D). JAG21 and Atovaquone had similar effects on the mitochondrial membrane potential (Figure 3D). […]
# [4] = system: Human Foreskin Fibroblast (HFF); experiment: Cytotoxicity assay, WST-1 cell proliferation reagent on HFF; assay type: cell-based
# Method: Toxicity assays used WST-1 cell proliferation reagent (Roche) as in Fomovska et al. ([2012a]). HFF were grown on a flat, clear-bottomed, black 96-well plate. Confluent HFF were treated with inhibitory compounds at concentrations of 10 and 50 μM. Compounds were diluted in IMDM-C, and 20 μL were added to each designated well, with triplicates for each condition. A gradient with 2-folddecreasing concentrations of DMSO from 10 to 0% in colorless, translucent IMDM-C was used as a control. The plate was incubated for 72 h at 37°C. Ten microlitre WST-1 reagent (Roche) were added to each well. Cells were incubated for 30–60 min. Absorbance was read using a fluorimeter at 420 nm. A higher degree of color change (and absorbance) indicated mitochondrial activity and cell viability.
# T. gondii RPS13Δ = experiment: RPS13Δ infection of interferon γ receptor knockout mice; assay type: in vivo, Toxoplasma gondii; conditions: mice to start 5 (Tafenoquine), 5 (JAG21)
# Method: In pilot studies, herein, interferon γ receptor knockout mice that were not treated were observed following infection. At 7 and at 14 days following infection, spleen, and liver were removed and immune peroxidase stained. At 14 days a group of mice were treated with anhydrotetracycline and when a subset of these mice died, their spleen and liver were removed and immune peroxidase stained.
# As in the pilot studies, this RPS13 Δ parasite also was used to infect interferon γ receptor knockout mice in a treatment study. In this separate study, groups of mice were infected with RPS13 Δ. They were treated with tafenoquine on day−1, or JAG21 for 14 days 2 h after infection, or the two together with tafenoquine on day−1 and JAG21 for the first 14 days, or with diluent only for 14 days, as described above. For the initial 14 days, no tetracycline was administered. After that time tetracycline was administered. Mice were observed each day. At the time they appeared to have substantial illness or at the termination of the experiment they were euthanized, tissues fixed in formalin and stained with hematoxylin and eosin or immunoperoxidase stained and parasite burden was assessed.
# [5] = C2B, multi-drug resistant strain with resistance against atovaquone, read-out: SYBR Green C2B IC50
# [6] = D6, drug sensitive strain, read-out: SYBR Green D6 IC50
# [7] = TM91-C235, multi-drug resistant strain, read-out: SYBR Green C235 IC50
# [8] = W2, chloroquine resistant strain, read-out: SYBR Green W2 IC50
Structure (SMILES),IC50 [1] [µM],"IC50 [2, 5] [µM]","IC50 [2, 6] [µM]","IC50 [2, 7] [µM]","IC50 [2, 8] [µM]",effect on mitochondrial membrane potential [3],Toxicity [4] [µM],"number of mice left at 42 (T. gondii RPS13Δ; Experiment 1, 6 (Tafenoquine+JAG21))","number of mice left at 37 (T. gondii RPS13Δ; Experiment 2, 9 (Tafenoquine+JAG21))"
Cc1[nH]c2c(c(=O)c1-c1ccc(Oc3ccc(C(=O)O)cc3)cc1)CCCC2 [JAG046],> 10,> 20,6.72,> 20,> 20,almost no effect,,,
COc1ccc(Oc2ccc(-c3c(C)[nH]c4c(c3=O)CCCC4)cc2)cc1OC [AS033],,,,,,,5,,
"COc1cc(C)c2c(Oc3cccc(C(F)(F)F)c3)c(OC)cc(NC(C)CCCN)c2n1 (stereo not drawn) [TAF, tafenoquine, reference compound]",,,,,,,,1,2
Cc1[nH]c2c(c(=O)c1-c1ccc(Oc3cccc(C(=O)O)c3)cc1)CCCC2 [JAG047],> 10,7.78,3.75,12.6,9.07,almost no effect,,,
